# Data as given in patent publication US9751888B2, “Heterocyclic compounds and uses thereof” (Infinity Pharmaceuticals, Inc., priority 2013, dated 2017).
# Molecular target: human Class I PI3 kinase γ (Homo sapiens (Human), UniProt P48736)
# Assay: PI3-Kinase Promega ADP-Glo Max assay, γ isoform
# Assay type: biochemical
# Details: 40 nM kinase, 3 mM ATP, 500 uM diC8-PtdInsP; read-out: Promega γ PI3K IC50
# Protocol: Promega ADP-Glo Max assay kit (Cat. No. V7002) was utilized to determine IC50 values for α, β, δ and γ isoforms of human Class I PI3 kinases (Millipore). Samples of kinase (20 nM α or δ, 40 nM β or γ isoform) were incubated with compound for 15 minutes at room temperature in reaction buffer (15 mM HEPES pH 7.4, 20 mM NaCl, 1 mM EGTA, 0.02% Tween 20, 10 mM MgCl2, 0.2 mg/mL bovine-γ-globulins) followed by addition of ATP/diC8-PtdInsP mixture to give final concentrations of 3 mM ATP and 500 uM diC8-PtdInsP. Reactions were incubated at room temperature for 2 hours followed by addition of 25 uL of stop solution. After a 40-minute incubation at room temperature, 50 uL of Promega detection mix was added followed by incubation for 1 hour at room temperature. Plates were then read on Envision plate reader in luminescence mode. Data was converted to % inhibition using the following equation below:
# [formula] where S is the sample luminescence, Pos is a positive control without added PI3K, Neg is the negative control without added compound. Data was then plotted as % inhibition vs compound concentration.
# Certain compounds provided herein were tested in PI3-Kinase Promega Assay using procedures as described above to determine IC50 values for α, β, δ and/or γ isoforms.
# Chain of human Class I PI3 kinase γ (P48736 whole entry, canonical isoform): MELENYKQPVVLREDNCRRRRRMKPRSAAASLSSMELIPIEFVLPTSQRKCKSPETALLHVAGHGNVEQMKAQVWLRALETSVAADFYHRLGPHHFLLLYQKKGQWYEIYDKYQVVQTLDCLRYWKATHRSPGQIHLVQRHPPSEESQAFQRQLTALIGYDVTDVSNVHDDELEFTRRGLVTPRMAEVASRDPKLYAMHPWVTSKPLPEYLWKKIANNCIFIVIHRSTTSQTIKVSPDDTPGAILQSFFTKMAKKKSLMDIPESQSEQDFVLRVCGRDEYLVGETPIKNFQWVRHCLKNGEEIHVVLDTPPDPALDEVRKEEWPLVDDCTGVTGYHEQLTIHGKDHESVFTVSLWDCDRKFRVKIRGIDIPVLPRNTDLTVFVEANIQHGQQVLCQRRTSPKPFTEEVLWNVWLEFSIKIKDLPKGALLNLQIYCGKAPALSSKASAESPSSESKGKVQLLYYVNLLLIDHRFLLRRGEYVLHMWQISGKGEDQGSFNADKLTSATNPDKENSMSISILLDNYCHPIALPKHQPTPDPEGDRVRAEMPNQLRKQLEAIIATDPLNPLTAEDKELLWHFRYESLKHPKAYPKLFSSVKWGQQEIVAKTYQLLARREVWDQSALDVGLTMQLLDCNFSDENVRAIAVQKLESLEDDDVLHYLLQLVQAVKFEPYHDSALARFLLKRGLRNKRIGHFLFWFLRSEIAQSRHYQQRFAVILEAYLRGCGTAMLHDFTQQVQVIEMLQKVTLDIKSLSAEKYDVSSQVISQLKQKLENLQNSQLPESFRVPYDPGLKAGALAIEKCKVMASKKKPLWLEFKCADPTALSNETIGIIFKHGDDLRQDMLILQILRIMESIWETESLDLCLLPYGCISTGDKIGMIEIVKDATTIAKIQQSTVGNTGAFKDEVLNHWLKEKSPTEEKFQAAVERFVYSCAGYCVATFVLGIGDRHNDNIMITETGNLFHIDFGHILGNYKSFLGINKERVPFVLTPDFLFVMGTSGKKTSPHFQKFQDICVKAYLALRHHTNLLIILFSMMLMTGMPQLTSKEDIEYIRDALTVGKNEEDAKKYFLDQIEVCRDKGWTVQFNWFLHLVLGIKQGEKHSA
row,SMILES,IC50
1,CC(C)C(=O)Cc1cccc2cc([C@H](C)NC(=O)c3c(N)nn4cccnc34)n(-c3ccccc3)c(=O)c12 [Compound 65],1000 to 10000 nM
2,C[C@H](NC(=O)c1c(N)nn2cccnc12)c1cc2cccc(CCc3cnn(C)c3)c2c(=O)n1-c1ccccc1 [Compound 66],500 to 1000 nM
3,C[C@H](NC(=O)c1c(N)nn2cccnc12)c1nc2ccc(Cl)cc2c(=O)n1-c1ccccc1 [Compound 88],1000 to 10000 nM
4,C[C@H](NC(=O)c1nccnc1N)c1oc2ccc(F)cc2c(=O)c1-c1ccccc1 [Compound 97],1000 to 10000 nM

# The remaining lines, values ahead:
row,IC50,SMILES
1,10 to 100 nM,CCS(=O)(=O)NCCn1c([C@H](C)NC(=O)c2c(N)nn3cccnc23)cc2cccc(Cl)c2c1=O [Compound 61]
2,500 to 1000 nM,C#CCCn1c([C@H](C)NC(=O)c2c(N)nn3cccnc23)cc2cccc(Cl)c2c1=O [Compound 62]
3,500 to 1000 nM,C[C@H](NC(=O)c1c(N)nn2cccnc12)c1cc2cccc(Cl)c2c(=O)n1CCc1cnn[nH]1 [Compound 63]
4,1000 to 10000 nM,C[C@H](NC(=O)c1c(N)nn2cccnc12)c1cc2cccc(Cl)c2c(=O)n1CCc1noc(C(C)(C)C)n1 [Compound 64]

# Molecular target: p110 γ (RAW264.7 cells) (Mus musculus (Mouse), UniProt Q9JHG7)
# Assay: PI3K-γ selective cellular assay: phospho-AKT in C5a stimulated RAW264.7 macrophages
# Assay type: cell-based
# Details: serum-starved RAW264.7 cells stimulated with C5a
# Protocol: Certain compounds provided herein were tested in RAW 264.7 cell model using procedures as described above.
row,SMILES,IC50
1,CC(C)C(=O)Cc1cccc2cc([C@H](C)NC(=O)c3c(N)nn4cccnc34)n(-c3ccccc3)c(=O)c12 [Compound 65],10 to 100 nM
2,C[C@H](NC(=O)c1c(N)nn2cccnc12)c1cc2cccc(CCc3cnn(C)c3)c2c(=O)n1-c1ccccc1 [Compound 66],1 to 10 nM

# Now from value to compound:
row,IC50,SMILES
1,100 to 500 nM,CCS(=O)(=O)NCCn1c([C@H](C)NC(=O)c2c(N)nn3cccnc23)cc2cccc(Cl)c2c1=O [Compound 61]
2,10 to 100 nM,C#CCCn1c([C@H](C)NC(=O)c2c(N)nn3cccnc23)cc2cccc(Cl)c2c1=O [Compound 62]
3,500 to 1000 nM,C[C@H](NC(=O)c1c(N)nn2cccnc12)c1cc2cccc(Cl)c2c(=O)n1CCc1cnn[nH]1 [Compound 63]
4,100 to 500 nM,C[C@H](NC(=O)c1c(N)nn2cccnc12)c1cc2cccc(Cl)c2c(=O)n1CCc1noc(C(C)(C)C)n1 [Compound 64]

# Molecular target: human Class I PI3 kinase α (Homo sapiens (Human), UniProt P42336)
# Assay: PI3-Kinase Promega ADP-Glo Max assay, α isoform
# Assay type: biochemical
# Details: 20 nM kinase, 3 mM ATP, 500 uM diC8-PtdInsP; read-out: Promega α PI3K IC50
# Chain of human Class I PI3 kinase α (P42336 whole entry, canonical isoform): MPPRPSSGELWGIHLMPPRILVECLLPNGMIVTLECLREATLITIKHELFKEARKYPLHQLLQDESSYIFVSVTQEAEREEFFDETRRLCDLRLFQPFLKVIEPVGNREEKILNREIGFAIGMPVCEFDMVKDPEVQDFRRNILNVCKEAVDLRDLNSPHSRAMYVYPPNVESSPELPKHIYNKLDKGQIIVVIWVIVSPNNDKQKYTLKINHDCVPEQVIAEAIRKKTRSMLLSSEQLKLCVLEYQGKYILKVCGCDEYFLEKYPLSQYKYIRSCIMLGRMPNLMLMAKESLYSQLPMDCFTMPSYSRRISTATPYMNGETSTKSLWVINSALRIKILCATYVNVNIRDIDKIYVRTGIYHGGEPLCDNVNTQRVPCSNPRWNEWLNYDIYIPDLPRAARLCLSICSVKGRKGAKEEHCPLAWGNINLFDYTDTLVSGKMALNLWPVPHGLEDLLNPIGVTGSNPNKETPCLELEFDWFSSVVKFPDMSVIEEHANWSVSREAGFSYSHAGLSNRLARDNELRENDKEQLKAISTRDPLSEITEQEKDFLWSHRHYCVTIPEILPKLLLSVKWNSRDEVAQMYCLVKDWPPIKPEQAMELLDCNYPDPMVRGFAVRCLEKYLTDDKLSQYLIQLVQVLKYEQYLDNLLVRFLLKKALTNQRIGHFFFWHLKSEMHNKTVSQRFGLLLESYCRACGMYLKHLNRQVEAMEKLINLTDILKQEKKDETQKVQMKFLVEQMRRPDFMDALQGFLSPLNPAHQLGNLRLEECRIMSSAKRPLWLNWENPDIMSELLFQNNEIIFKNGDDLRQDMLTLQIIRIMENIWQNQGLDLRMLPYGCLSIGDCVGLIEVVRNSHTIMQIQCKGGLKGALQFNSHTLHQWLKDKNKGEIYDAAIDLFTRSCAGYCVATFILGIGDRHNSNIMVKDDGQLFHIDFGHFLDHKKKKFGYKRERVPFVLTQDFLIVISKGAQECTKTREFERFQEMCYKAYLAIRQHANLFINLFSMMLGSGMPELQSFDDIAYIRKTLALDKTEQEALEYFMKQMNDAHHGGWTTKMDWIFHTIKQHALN
# Chain of human Class I PI3 kinase α (P27986 whole entry partner, canonical isoform): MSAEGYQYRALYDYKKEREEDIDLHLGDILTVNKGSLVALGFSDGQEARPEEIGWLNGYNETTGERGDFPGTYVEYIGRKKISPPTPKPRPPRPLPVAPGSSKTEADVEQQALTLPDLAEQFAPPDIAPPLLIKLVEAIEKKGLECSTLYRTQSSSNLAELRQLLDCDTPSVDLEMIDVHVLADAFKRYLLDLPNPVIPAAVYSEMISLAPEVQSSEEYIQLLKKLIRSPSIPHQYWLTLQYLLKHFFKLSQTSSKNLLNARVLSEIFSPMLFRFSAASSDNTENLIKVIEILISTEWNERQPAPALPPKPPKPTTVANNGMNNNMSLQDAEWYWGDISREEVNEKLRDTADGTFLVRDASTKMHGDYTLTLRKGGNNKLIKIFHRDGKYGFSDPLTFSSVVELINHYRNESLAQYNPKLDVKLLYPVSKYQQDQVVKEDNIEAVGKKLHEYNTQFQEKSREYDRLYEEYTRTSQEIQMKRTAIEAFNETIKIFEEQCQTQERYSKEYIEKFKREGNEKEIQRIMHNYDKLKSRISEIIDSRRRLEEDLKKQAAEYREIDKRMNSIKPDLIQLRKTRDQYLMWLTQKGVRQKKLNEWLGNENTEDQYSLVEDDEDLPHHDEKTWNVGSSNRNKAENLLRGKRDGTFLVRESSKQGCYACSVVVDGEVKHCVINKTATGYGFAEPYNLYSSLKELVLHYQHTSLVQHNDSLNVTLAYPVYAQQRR
row,SMILES,IC50
1,CC(C)C(=O)Cc1cccc2cc([C@H](C)NC(=O)c3c(N)nn4cccnc34)n(-c3ccccc3)c(=O)c12 [Compound 65],1000 to 10000 nM
2,C[C@H](NC(=O)c1c(N)nn2cccnc12)c1nc2ccc(Cl)cc2c(=O)n1-c1ccccc1 [Compound 88],1000 to 10000 nM
3,C[C@H](NC(=O)c1nccnc1N)c1oc2ccc(F)cc2c(=O)c1-c1ccccc1 [Compound 97],1000 to 10000 nM

# The next lines start with the values.
row,IC50,SMILES
1,1000 to 10000 nM,CCS(=O)(=O)NCCn1c([C@H](C)NC(=O)c2c(N)nn3cccnc23)cc2cccc(Cl)c2c1=O [Compound 61]
2,1000 to 10000 nM,C#CCCn1c([C@H](C)NC(=O)c2c(N)nn3cccnc23)cc2cccc(Cl)c2c1=O [Compound 62]
3,1000 to 10000 nM,C[C@H](NC(=O)c1c(N)nn2cccnc12)c1cc2cccc(Cl)c2c(=O)n1CCc1cnn[nH]1 [Compound 63]
4,1000 to 10000 nM,C[C@H](NC(=O)c1c(N)nn2cccnc12)c1cc2cccc(Cl)c2c(=O)n1CCc1noc(C(C)(C)C)n1 [Compound 64]

# Molecular target: human Class I PI3 kinase δ (Homo sapiens (Human), UniProt O00329)
# Assay: PI3-Kinase Promega ADP-Glo Max assay, δ isoform
# Assay type: biochemical
# Details: 20 nM kinase, 3 mM ATP, 500 uM diC8-PtdInsP; read-out: Promega δ PI3K IC50
# Chain of human Class I PI3 kinase δ (O00329 whole entry, canonical isoform): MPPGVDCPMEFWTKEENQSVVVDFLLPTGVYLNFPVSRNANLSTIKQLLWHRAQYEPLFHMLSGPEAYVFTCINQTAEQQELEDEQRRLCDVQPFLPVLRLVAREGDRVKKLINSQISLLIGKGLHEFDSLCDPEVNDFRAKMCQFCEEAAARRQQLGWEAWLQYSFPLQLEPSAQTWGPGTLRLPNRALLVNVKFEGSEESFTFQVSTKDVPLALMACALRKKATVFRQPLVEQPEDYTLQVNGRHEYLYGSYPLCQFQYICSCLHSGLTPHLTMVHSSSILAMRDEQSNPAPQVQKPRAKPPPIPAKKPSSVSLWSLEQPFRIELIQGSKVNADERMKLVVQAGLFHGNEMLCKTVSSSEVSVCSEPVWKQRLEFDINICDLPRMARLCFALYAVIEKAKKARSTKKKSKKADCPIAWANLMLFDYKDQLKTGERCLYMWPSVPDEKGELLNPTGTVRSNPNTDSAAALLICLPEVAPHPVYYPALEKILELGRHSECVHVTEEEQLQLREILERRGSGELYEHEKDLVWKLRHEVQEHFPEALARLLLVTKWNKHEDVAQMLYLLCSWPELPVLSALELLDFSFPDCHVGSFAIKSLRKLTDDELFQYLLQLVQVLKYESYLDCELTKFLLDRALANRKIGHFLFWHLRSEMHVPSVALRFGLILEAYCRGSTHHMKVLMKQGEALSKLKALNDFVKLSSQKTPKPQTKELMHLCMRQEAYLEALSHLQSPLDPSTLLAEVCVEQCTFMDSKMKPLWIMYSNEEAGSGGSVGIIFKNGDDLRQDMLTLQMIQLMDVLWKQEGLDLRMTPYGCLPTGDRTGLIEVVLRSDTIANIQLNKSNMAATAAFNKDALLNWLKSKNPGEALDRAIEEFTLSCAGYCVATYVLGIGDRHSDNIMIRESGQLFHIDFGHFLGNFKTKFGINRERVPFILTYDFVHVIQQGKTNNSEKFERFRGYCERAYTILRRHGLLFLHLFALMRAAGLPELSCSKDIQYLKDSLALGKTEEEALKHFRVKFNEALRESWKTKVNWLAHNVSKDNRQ
# Chain of human Class I PI3 kinase δ (P27986 whole entry partner, canonical isoform): as the sequence (P27986 whole entry partner, canonical isoform) above
row,SMILES,IC50
1,CC(C)C(=O)Cc1cccc2cc([C@H](C)NC(=O)c3c(N)nn4cccnc34)n(-c3ccccc3)c(=O)c12 [Compound 65],1000 to 10000 nM
2,C[C@H](NC(=O)c1c(N)nn2cccnc12)c1nc2ccc(Cl)cc2c(=O)n1-c1ccccc1 [Compound 88],1000 to 10000 nM
3,C[C@H](NC(=O)c1nccnc1N)c1oc2ccc(F)cc2c(=O)c1-c1ccccc1 [Compound 97],1000 to 10000 nM

# More lines, now with the values ahead:
row,IC50,SMILES
1,100 to 500 nM,CCS(=O)(=O)NCCn1c([C@H](C)NC(=O)c2c(N)nn3cccnc23)cc2cccc(Cl)c2c1=O [Compound 61]
2,1000 to 10000 nM,C#CCCn1c([C@H](C)NC(=O)c2c(N)nn3cccnc23)cc2cccc(Cl)c2c1=O [Compound 62]
3,1000 to 10000 nM,C[C@H](NC(=O)c1c(N)nn2cccnc12)c1cc2cccc(Cl)c2c(=O)n1CCc1cnn[nH]1 [Compound 63]
4,1000 to 10000 nM,C[C@H](NC(=O)c1c(N)nn2cccnc12)c1cc2cccc(Cl)c2c(=O)n1CCc1noc(C(C)(C)C)n1 [Compound 64]

# Molecular target: human Class I PI3 kinase β (Homo sapiens (Human), UniProt P42338)
# Assay: PI3-Kinase Promega ADP-Glo Max assay, β isoform
# Assay type: biochemical
# Details: 40 nM kinase, 3 mM ATP, 500 uM diC8-PtdInsP; read-out: Promega β PI3K IC50
row,SMILES,IC50
1,CC(C)C(=O)Cc1cccc2cc([C@H](C)NC(=O)c3c(N)nn4cccnc34)n(-c3ccccc3)c(=O)c12 [Compound 65],1000 to 10000 nM
2,C[C@H](NC(=O)c1c(N)nn2cccnc12)c1nc2ccc(Cl)cc2c(=O)n1-c1ccccc1 [Compound 88],1000 to 10000 nM
3,C[C@H](NC(=O)c1nccnc1N)c1oc2ccc(F)cc2c(=O)c1-c1ccccc1 [Compound 97],1000 to 10000 nM

# The next lines start with the values.
row,IC50,SMILES
1,100 to 500 nM,CCS(=O)(=O)NCCn1c([C@H](C)NC(=O)c2c(N)nn3cccnc23)cc2cccc(Cl)c2c1=O [Compound 61]
2,500 to 1000 nM,C#CCCn1c([C@H](C)NC(=O)c2c(N)nn3cccnc23)cc2cccc(Cl)c2c1=O [Compound 62]
3,100 to 500 nM,C[C@H](NC(=O)c1c(N)nn2cccnc12)c1cc2cccc(Cl)c2c(=O)n1CCc1cnn[nH]1 [Compound 63]
4,1000 to 10000 nM,C[C@H](NC(=O)c1c(N)nn2cccnc12)c1cc2cccc(Cl)c2c(=O)n1CCc1noc(C(C)(C)C)n1 [Compound 64]

# Molecular target: p110 δ (RAJI cells) (Homo sapiens (Human), UniProt O00329)
# Assay: PI3K-δ selective cellular assay: phospho-AKT in anti-human IgM stimulated RAJI cells
# Assay type: cell-based
# Details: serum-starved RAJI cells stimulated with anti-human IgM
# From the text: A compound's ability in selectively inhibiting PI3K-δ can be assessed using RAJI cells, i.e., B lymphocyte cells derived from lymphoma patients. Briefly, serum-starved RAJI cells are stimulated with anti-human IgM, thereby causing signaling through the B-cell receptors, as described in, for example, He et al., Leukemia Research (2009) 33: 798-802. B-cell receptor signaling is important for the activation, differentiation, and survival of B cells and certain B-cell derived cancers. Reduction of phospho-AKT is indicative of compounds that may inhibit B-cell proliferation and function in certain diseases. […] Certain compounds provided herein were tested in RAJI cell model using procedures as described above.
# Chain of p110 δ (RAJI cells) (O00329 whole entry): as the sequence (O00329 whole entry, canonical isoform) above
# Chain of p110 δ (RAJI cells) (P27986 whole entry partner): as the sequence (P27986 whole entry partner, canonical isoform) above
row,SMILES,IC50
1,CC(C)C(=O)Cc1cccc2cc([C@H](C)NC(=O)c3c(N)nn4cccnc34)n(-c3ccccc3)c(=O)c12 [Compound 65],100 to 500 nM
2,C[C@H](NC(=O)c1c(N)nn2cccnc12)c1cc2cccc(CCc3cnn(C)c3)c2c(=O)n1-c1ccccc1 [Compound 66],10 to 100 nM

# More lines, now with the values ahead:
row,IC50,SMILES
1,10 to 100 nM,CCS(=O)(=O)NCCn1c([C@H](C)NC(=O)c2c(N)nn3cccnc23)cc2cccc(Cl)c2c1=O [Compound 61]
2,100 to 500 nM,C#CCCn1c([C@H](C)NC(=O)c2c(N)nn3cccnc23)cc2cccc(Cl)c2c1=O [Compound 62]
3,100 to 500 nM,C[C@H](NC(=O)c1c(N)nn2cccnc12)c1cc2cccc(Cl)c2c(=O)n1CCc1cnn[nH]1 [Compound 63]
4,100 to 500 nM,C[C@H](NC(=O)c1c(N)nn2cccnc12)c1cc2cccc(Cl)c2c(=O)n1CCc1noc(C(C)(C)C)n1 [Compound 64]
